Laboratory results from ChEMBL document CHEMBL1141145, “A chiral benzoquinolizine-2-carboxylic acid arginine salt active against vancomycin-resistant Staphylococcus aureus” (J Med Chem, 2005).
≈ marks a conversion by molar mass, not a printed value. Numbered stars: 1 amine (or outer) side, 2 acyl side, 3 side chain; on linkers, the order of the positions; unused ones are H or OH. Bridge positions count the residues as written; N and C are the ends. Square brackets hold non-standard residues; d marks the D form. Peptide text beside a SMILES is read from it. * marks the point of attachment. X1 = O=C1C[C@@H](C(=O)[*:2])N([*:1])C[C@H]1CS[C@@H]1CN2CCC1CC2; NMePhe(4-NMe2) = CN[C@@H](Cc1ccc(N(C)C)cc1)C(=O)O; Picolinoyl(3-OH) = O=C(c1ncccc1O)*; Phg = N[C@H](C(=O)O)c1ccccc1; dAbu = CC[C@@H](N)C(=O)O

Tests used:
[1] = tested on: Mus musculus; experiment: Efficacy against mice infected with MRSA-33 upon s.c. administration; assay type: functional; details: sc
[2] = tested on: Staphylococcus aureus; experiment: microbe, parasite or virus in culture
[3] = tested on: Streptococcus pyogenes; experiment: Minimum inhibitory concentration against Streptococcus pyogenes ATCC 19615; assay type: functional
[4] = tested on: Phocaeicola vulgatus; experiment: Minimum inhibitory concentration against Bacteroides vulgatus ATCC 29327; assay type: functional
[5] = tested on: Staphylococcus aureus; experiment: Minimum inhibitory concentration against Vancomycin intermediate Staphylococcus aureus MU 50; assay type: functional
[6] = tested on: Staphylococcus haemolyticus; experiment: Minimum inhibitory concentration against Staphylococcus haemolyticus ATCC 29970; assay type: functional
[7] = tested on: Staphylococcus aureus; experiment: Minimum inhibitory concentration against vancomycin-resistant Staphylococcus aureus (Hershey); assay type: functional
[8] = tested on: Streptococcus sanguinis; experiment: Minimum inhibitory concentration against Streptococcus sanguis ATCC 10556; assay type: functional
[9] = tested on: Enterococcus faecalis; experiment: Minimum inhibitory concentration against Enterococcus faecalis ATCC 29212; assay type: functional
[10] = tested on: Streptococcus agalactiae; experiment: Minimum inhibitory concentration against Streptococcus agalactiae ATCC 13813; assay type: functional
[11] = tested on: Klebsiella pneumoniae; experiment: Minimum inhibitory concentration against Klebsiella pneumoniae ATCC 10031; assay type: functional
[12] = tested on: Staphylococcus aureus; experiment: Minimum inhibitory concentration against vancomycin intermediate Staphylococcus aureus MU 3; assay type: functional
[13] = tested on: Mus musculus; experiment: Efficacy against mice infected with MRSA-32 upon s.c. administration; assay type: functional; details: MRSA-32, sc
[14] = tested on: Staphylococcus aureus; experiment: microbe, parasite or virus in culture; remark: listed apart in the source
[15] = tested on: Mus musculus; experiment: Efficacy against mice infected with Staphylococcus aureus ATCC 25923 upon s.c. administration; assay type: functional; details: sc
[16] = tested on: Staphylococcus saprophyticus; experiment: Minimum inhibitory concentration against Staphylococcus saprophyticus ATCC 15305; assay type: functional
[17] = tested on: Staphylococcus aureus; experiment: microbe, parasite or virus in culture; remark: listed apart in the source
[18] = tested on: Staphylococcus aureus; experiment: Minimum inhibitory concentration against Staphylococcus aureus ATCC 25923; assay type: functional
[19] = tested on: Mus musculus; experiment: Protection of mice infected with MRSA-32 cell suspension after s.c. administration of compound; assay type: functional; details: MRSA-32, sc
[20] = tested on: Staphylococcus aureus; experiment: Minimum inhibitory concentration against methicillin susceptible Staphylococcus aureus in the absence of esterase action; assay type: functional
[21] = tested on: Mus musculus; experiment: Protection of mice infected with MRSA-32 cell suspension after oral administration of compound; assay type: functional; details: Mus musculus, MRSA-32, po; read-out: ED50
[22] = tested on: Staphylococcus aureus; experiment: Mutant prevention concentration aganist methicillin resistant Staphylococcus aureus-5023 done for 48 hr at 37 degree C with compound; assay type: functional
[23] = tested on: Staphylococcus aureus; experiment: Mutant prevention concentration against methicillin resistant Staphylococcus aureus-32 done for 48 h at 37 degree C with compound; assay type: functional
[24] = tested on: Staphylococcus aureus; experiment: Frequency of resistance emergence for methicillin resistant Staphylococcus aureus-5023; assay type: functional
[25] = tested on: Staphylococcus aureus; experiment: Frequency of resistance emergence for methicillin resistant Staphylococcus aureus-32; assay type: functional
[26] = tested on: Staphylococcus aureus; experiment: microbe, parasite or virus in culture; remark: listed apart in the source
[27] = tested on: Pseudomonas aeruginosa; experiment: microbe, parasite or virus in culture; details: ATCC 27853
[28] = tested on: Staphylococcus aureus; experiment: Mutant prevention concentration aganist methicillin resistant Staphylococcus aureus-33 done for 48 hr at 37 degree C with compound; assay type: functional
[29] = tested on: Staphylococcus aureus; experiment: Frequency of resistance emergence for methicillin resistant Staphylococcus aureus-33; assay type: functional
[30] = molecular target: DNA gyrase (Staphylococcus aureus) (UniProt P0A0K8+P20831)
[31] = molecular target: DNA gyrase (Staphylococcus aureus, UniProt P0A0K8+P20831)
[32] = tested on: Staphylococcus aureus; experiment: Minimum inhibitory concentration against Staphylococcus aureus grlA mutant; assay type: functional
[33] = tested on: Staphylococcus aureus; experiment: Minimum inhibitory concentration against Staphylococcus aureus ISP 794 (wild type); assay type: functional
[34] = molecular target: DNA topoisomerase 4 subunit A (Staphylococcus aureus, UniProt P0C1U9)
[35] = tested on: Staphylococcus aureus; experiment: Minimum inhibitory concentration against Staphylococcus aureus gyrA/grlA double mutant; assay type: functional
[36] = tested on: Staphylococcus aureus; experiment: Minimum inhibitory concentration against Staphylococcus aureus gyrA mutant; assay type: functional
[37] = physchem
[38] = molecular target: DNA topoisomerase 4 subunit A (Staphylococcus aureus) (UniProt P0C1U9)
[39] = tested on: Staphylococcus aureus; experiment: Minimum inhibitory concentration against vancomycin intermediate Staphylococcus aureus MU 50; assay type: functional
[40] = physchem; details: octanol/water, pH 7.4
[41] = physchem; details: octanol/water, pH 2
[42] = physchem; remark: listed apart in the source
[43] = physchem; remark: listed apart in the source

Chain of DNA topoisomerase 4 subunit A (Staphylococcus aureus) (P0C1U9 whole entry): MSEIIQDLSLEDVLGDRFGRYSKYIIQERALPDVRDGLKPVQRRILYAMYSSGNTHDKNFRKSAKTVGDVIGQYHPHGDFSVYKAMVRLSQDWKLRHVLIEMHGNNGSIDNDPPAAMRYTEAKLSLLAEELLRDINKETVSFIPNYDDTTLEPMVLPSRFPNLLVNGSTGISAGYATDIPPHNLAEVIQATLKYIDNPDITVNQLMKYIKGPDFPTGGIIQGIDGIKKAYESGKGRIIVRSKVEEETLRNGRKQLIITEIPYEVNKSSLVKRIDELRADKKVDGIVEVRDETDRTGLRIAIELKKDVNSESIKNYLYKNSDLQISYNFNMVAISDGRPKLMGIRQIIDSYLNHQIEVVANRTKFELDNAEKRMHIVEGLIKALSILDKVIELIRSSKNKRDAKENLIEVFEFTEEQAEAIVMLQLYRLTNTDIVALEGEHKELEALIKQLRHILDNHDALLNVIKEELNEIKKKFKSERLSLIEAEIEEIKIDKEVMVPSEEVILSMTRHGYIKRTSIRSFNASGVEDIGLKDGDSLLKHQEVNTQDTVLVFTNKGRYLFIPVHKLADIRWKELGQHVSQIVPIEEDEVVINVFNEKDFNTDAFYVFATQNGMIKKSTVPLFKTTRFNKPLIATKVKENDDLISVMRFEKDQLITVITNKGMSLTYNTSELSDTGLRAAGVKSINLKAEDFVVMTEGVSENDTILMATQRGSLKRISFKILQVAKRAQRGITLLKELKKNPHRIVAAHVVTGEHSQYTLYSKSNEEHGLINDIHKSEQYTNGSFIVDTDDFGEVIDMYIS
Chain of DNA topoisomerase 4 subunit A (P0C1U9 whole entry): as above
Chain of DNA gyrase (Staphylococcus aureus) (P0A0K8 2-644 limits assumed): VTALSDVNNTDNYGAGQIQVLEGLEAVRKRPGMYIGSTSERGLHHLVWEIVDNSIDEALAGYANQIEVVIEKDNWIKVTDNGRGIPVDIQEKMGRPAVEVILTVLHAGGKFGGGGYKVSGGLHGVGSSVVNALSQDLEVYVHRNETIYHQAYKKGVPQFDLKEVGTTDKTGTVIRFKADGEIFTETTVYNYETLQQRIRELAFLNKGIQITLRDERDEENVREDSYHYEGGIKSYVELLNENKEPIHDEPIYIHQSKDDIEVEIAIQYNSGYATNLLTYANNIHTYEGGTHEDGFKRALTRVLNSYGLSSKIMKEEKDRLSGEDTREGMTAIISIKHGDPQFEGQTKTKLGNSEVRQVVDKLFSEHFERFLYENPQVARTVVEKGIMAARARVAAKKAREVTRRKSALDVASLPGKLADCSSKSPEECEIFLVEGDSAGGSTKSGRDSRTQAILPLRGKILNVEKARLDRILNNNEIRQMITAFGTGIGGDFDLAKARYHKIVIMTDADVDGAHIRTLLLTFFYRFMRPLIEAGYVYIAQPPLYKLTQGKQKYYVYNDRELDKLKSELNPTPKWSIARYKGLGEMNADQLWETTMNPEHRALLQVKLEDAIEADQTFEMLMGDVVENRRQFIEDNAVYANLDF
Chain of DNA gyrase (Staphylococcus aureus) (P20831 whole entry partner): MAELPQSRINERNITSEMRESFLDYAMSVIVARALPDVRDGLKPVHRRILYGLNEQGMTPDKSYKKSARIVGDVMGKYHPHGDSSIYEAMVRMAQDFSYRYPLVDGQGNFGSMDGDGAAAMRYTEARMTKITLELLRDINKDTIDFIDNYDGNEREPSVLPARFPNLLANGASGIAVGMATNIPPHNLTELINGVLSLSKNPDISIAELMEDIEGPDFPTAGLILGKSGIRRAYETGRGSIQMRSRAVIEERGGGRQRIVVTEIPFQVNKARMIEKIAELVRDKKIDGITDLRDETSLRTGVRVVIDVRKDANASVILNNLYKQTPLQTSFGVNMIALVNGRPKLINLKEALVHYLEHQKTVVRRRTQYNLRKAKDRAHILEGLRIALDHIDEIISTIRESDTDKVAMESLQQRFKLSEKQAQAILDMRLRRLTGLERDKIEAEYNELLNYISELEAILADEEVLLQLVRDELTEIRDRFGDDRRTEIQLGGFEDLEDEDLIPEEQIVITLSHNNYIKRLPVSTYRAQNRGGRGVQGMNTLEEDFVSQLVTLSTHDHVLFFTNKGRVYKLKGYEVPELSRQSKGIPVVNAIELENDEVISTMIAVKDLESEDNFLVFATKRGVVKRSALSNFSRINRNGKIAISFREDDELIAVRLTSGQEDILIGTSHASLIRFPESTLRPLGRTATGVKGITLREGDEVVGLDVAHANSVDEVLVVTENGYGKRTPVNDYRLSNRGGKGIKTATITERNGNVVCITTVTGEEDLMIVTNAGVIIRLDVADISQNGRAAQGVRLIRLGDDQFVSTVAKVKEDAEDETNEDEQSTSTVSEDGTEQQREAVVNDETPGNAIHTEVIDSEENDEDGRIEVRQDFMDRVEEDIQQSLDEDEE
Chain of DNA gyrase (P0A0K8 whole entry): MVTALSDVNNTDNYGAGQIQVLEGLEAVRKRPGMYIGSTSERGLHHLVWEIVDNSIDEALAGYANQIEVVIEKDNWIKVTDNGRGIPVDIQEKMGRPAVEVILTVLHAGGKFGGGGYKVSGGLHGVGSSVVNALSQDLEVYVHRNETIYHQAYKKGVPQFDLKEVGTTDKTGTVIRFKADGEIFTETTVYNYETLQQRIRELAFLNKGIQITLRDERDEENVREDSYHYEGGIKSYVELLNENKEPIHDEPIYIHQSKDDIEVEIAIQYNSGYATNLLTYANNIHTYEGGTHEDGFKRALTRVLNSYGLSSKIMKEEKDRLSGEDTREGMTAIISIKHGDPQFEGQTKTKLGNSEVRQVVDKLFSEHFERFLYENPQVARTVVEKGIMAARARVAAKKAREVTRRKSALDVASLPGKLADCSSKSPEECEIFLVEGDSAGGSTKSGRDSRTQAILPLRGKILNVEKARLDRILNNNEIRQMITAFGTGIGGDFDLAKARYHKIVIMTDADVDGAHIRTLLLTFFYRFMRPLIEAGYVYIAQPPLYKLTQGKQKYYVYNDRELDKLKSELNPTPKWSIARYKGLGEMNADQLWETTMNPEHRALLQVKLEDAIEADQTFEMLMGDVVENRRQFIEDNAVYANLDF
Chain of DNA gyrase (P20831 whole entry): as the sequence (P20831 whole entry partner) above

Q: For C[C@H]1COc2c(N3CCN(C)CC3)c(F)cc3c(=O)c(C(=O)O)cn1c23.C[C@H]1COc2c(N3CCN(C)CC3)c(F)cc3c(=O)c(C(=O)O)cn1c23.O [LEVOFLOXACIN], which ED50 [1] is on record?
A: > 100 mg/kg

Q: What about the MIC [2] of the same compound?
A: 16 µg/mL

Q: What about the MIC [3] of the same compound?
A: 1 µg/mL

Q: What about the MIC [4] of the same compound?
A: 1 µg/mL

Q: And the MIC [5]?
A: 8 µg/mL

Q: And the MIC [6]?
A: 0.12 µg/mL

Q: And the MIC [7]?
A: 32 µg/mL

Q: And the MIC [8]?
A: 2 µg/mL

Q: What about the MIC [9] of the same compound?
A: 1 µg/mL

Q: What about the MIC [10] of the same compound?
A: 1 µg/mL

Q: And the MIC [11]?
A: 0.008 µg/mL

Q: And the MIC [12]?
A: 16 µg/mL

Q: And the ED50 [13]?
A: > 100 mg/kg

Q: And the MIC [14]?
A: 8 µg/mL

Q: And the ED50 [15]?
A: 5.92 mg/kg

Q: And the MIC [16]?
A: 0.5 µg/mL

Q: And the MIC [17]?
A: 16 µg/mL

Q: And the MIC [18]?
A: 1 µg/mL

Q: Which results are given for C[C@H]1CCc2c(N3CCC(O)CC3)c(F)cc3c(=O)c(C(=O)O)cn1c23 [LEVONADIFLOXACIN]?
A: ED50 [19]: 24.8 mg/kg; MIC [20]: 0.03 µg/mL (≈ 0.0832 µM); ED50 [21]: 62.3 mg/kg

Q: For COc1c(N2C[C@@H]3CCCN[C@@H]3C2)c(F)cc2c(=O)c(C(=O)O)cn(C3CC3)c12 [MOXIFLOXACIN], which MPC [22] is on record?
A: 10 µg/mL

Q: What about the ED50 [1] of the same compound?
A: 66.1 mg/kg

Q: And the MIC [2]?
A: 2 µg/mL (≈ 4.98 µM)

Q: And the MIC [3]?
A: 0.25 µg/mL (≈ 0.623 µM)

Q: And the MPC [23]?
A: 10 µg/mL

Q: What about the FRE [24] of the same compound?
A: 3.1e-05

Q: What about the MIC [4] of the same compound?
A: 0.5 µg/mL (≈ 1.25 µM)

Q: And the MIC [6]?
A: 0.06 µg/mL (≈ 0.149 µM)

Q: What about the FRE [25] of the same compound?
A: 4.51e-05

Q: What about the MIC [26] of the same compound?
A: 4 µg/mL (≈ 9.96 µM)

Q: What about the MIC [8] of the same compound?
A: 0.5 µg/mL (≈ 1.25 µM)

Q: And the MIC [9]?
A: 0.25 µg/mL (≈ 0.623 µM)

Q: And the MIC [10]?
A: 0.12 µg/mL (≈ 0.299 µM)

Q: And the MIC [11]?
A: 0.008 µg/mL (≈ 0.0199 µM)

Q: And the MIC [12]?
A: 4 µg/mL (≈ 9.96 µM)

Q: What about the MIC [27] of the same compound?
A: 4 µg/mL (≈ 9.96 µM)

Q: And the MPC [28]?
A: 10 µg/mL

Q: And the ED50 [13]?
A: 30 mg/kg

Q: What about the MIC [14] of the same compound?
A: 2 µg/mL (≈ 4.98 µM)

Q: What about the ED50 [15] of the same compound?
A: 0.6 mg/kg

Q: What about the MIC [16] of the same compound?
A: 0.25 µg/mL (≈ 0.623 µM)

Q: And the MIC [17]?
A: 2 µg/mL (≈ 4.98 µM)

Q: And the MIC [18]?
A: 0.06 µg/mL (≈ 0.149 µM)

Q: What about the FRE [29] of the same compound?
A: 2.1e-06

Q: With CC1CCc2c(N3CCC(O)CC3)c(F)cc3c(=O)c(C(=O)O)cn1c23 (stereo unspecified) [NADIFLOXACIN] as the compound, how does the CC50 [30] read?
A: 25 µg/mL (≈ 69.4 µM)

Q: What about the IC50 [31] of the same compound?
A: 27.7 µM

Q: What about the MIC [32] of the same compound?
A: 1 µg/mL (≈ 2.77 µM)

Q: What about the MIC [33] of the same compound?
A: 0.25 µg/mL (≈ 0.694 µM)

Q: And the IC50 [34]?
A: > 27.7 µM

Q: What about the MIC [35] of the same compound?
A: 32 µg/mL (≈ 88.8 µM)

Q: And the MIC [36]?
A: 1 µg/mL (≈ 2.77 µM)

Q: What about the pKa [37] of the same compound?
A: 6.8

Q: What about the CC50 [38] of the same compound?
A: > 10 µg/mL

Q: What does the source list for CCN(CC)CCS(=O)(=O)[C@@H]1CCN2C(=O)c3coc(n3)CC(=O)C[C@H](O)/C=C(C)/C=C/CNC(=O)/C=C/[C@@H](C)[C@@H](C(C)C)OC(=O)[C@@H]12.CC[C@H]1NC(=O)[C@@H](NC(=O)c2ncccc2O)[C@@H](C)OC(=O)[C@H](c2ccccc2)NC(=O)[C@@H]2CC(=O)[C@H](CS[C@@H]3CN4CCC3CC4)CN2C(=O)[C@H](Cc2ccc(N(C)C)cc2)N(C)C(=O)[C@@H]2CCCN2C1=O [QUINUPRISTIN/DALFOPRISTIN] ({Picolinoyl(3-OH)}-T[dAbu]P[NMePhe(4-NMe2)][X1][Phg]; ester 1-C)?
A: MIC [39]: 1 µg/mL; MIC [2]: 0.5 µg/mL; MIC [7]: 1 µg/mL; MIC [12]: 1 µg/mL; MIC [14]: 1 µg/mL; MIC [17]: 1 µg/mL

Q: With N[C@@H]1[C@H]2CN(c3nc4c(cc3F)c(=O)c(C(=O)O)cn4-c3ccc(F)cc3F)C[C@@H]12 [TROVAFLOXACIN] as the compound, how does the logD [40] read?
A: 0.42

Q: What about the logD [41] of the same compound?
A: -0.35

Q: What about the pKa [42] of the same compound?
A: 8.13

Q: And the pKa [43]?
A: 8.02

Q: And the pKa [37]?
A: 4.45

Q: Which ED50 [1] does the source give for CN[C@H](CC(C)C)C(=O)N[C@H]1C(=O)N[C@@H](CC(N)=O)C(=O)N[C@H]2C(=O)N[C@H]3C(=O)N[C@H](C(=O)N[C@H](C(=O)O)c4cc(O)cc(O)c4-c4cc3ccc4O)[C@H](O)c3ccc(c(Cl)c3)Oc3cc2cc(c3O[C@@H]2O[C@H](CO)[C@@H](O)[C@H](O)[C@H]2O[C@H]2C[C@](C)(N)[C@H](O)[C@H](C)O2)Oc2ccc(cc2Cl)[C@H]1O [VANCOMYCIN] here?
A: > 3.7 mg/kg

Q: And the MIC [5]?
A: 16 µg/mL (≈ 11 µM)

Q: What about the MIC [7] of the same compound?
A: 32 µg/mL (≈ 22.1 µM)

Q: And the MIC [12]?
A: 8 µg/mL (≈ 5.52 µM)

Q: And the ED50 [13]?
A: > 2.18 mg/kg

Q: And the ED50 [15]?
A: 6.11 mg/kg
